Consider 17 compounds from patent publication US12643886B2 (Ontario Institute for Cancer Research (OICR), priority 2021, dated 2026).

The IC50 is the concentration at which inhibition is half-maximal.

Format in all cases: biochemical
Test [1] has as its target T1, NUAK2 (h) (Homo sapiens, UniProt Q9H093).
T1 construct: This assay was done radiometrically using full-length, recombinant enzyme; purchased Eurofins
T1 sequence (Q9H093 1-628): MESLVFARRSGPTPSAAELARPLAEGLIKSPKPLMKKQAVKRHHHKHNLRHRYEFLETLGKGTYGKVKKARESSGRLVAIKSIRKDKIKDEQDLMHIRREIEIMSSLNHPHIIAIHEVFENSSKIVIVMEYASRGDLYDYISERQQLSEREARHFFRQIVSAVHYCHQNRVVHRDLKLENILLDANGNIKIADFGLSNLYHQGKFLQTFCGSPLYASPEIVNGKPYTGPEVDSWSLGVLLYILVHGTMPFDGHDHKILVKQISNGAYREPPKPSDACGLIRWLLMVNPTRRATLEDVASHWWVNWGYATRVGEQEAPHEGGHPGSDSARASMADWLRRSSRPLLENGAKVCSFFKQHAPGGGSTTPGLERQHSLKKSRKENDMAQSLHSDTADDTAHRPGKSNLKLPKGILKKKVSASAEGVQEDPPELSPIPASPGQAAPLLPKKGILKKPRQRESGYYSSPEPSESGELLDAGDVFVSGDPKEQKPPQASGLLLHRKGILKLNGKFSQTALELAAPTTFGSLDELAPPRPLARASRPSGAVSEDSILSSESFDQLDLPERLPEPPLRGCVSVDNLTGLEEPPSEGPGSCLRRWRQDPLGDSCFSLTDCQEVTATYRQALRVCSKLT
Briefly: NUAK2 enzymatic assay (radiometric, Eurofins). As to conditions: full-length recombinant enzyme. Put shortly:
(§1)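 Full-length recombinant NUAK2 incubated 40 min at room temperature in 8 mM MOPS pH 7.0, 0.2 mM EDTA, 10 mM magnesium acetate, 300 μM peptide substrate and 33P-ATP. Stopped with 0.5% phosphoric acid; filter-bound label counted by scintillation. IC50 reported as ranges; NUAK1 and Aurora A served as counter-screens.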

In test [2] the target is T2, NUAK1 (Homo sapiens, UniProt O60285).
T2 sequence (O60285 1-661): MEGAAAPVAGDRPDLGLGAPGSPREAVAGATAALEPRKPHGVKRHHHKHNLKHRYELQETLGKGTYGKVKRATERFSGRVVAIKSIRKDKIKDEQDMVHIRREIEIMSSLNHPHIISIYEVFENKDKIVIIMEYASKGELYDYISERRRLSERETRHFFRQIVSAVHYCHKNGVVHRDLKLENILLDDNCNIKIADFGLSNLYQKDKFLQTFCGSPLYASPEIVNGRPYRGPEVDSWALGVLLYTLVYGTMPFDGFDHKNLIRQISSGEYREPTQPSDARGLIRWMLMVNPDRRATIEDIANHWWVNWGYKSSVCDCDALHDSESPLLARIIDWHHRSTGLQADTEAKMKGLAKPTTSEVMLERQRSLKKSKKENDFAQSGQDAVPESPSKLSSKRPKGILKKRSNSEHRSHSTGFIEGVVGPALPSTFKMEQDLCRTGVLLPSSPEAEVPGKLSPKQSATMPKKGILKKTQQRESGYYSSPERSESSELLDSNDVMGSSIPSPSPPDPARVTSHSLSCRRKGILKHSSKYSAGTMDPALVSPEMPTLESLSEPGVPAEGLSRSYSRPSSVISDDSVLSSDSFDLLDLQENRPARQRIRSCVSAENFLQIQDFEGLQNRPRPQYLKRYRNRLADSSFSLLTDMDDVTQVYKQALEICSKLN
Briefly: Counter-screen against NUAK1. Summed up: as §1
(In general: Counterscreens check selectivity or assay interference.)

For test [3], the target named is T3, Aurora A (Homo sapiens, UniProt O14965).
T3 sequence (O14965 1-403): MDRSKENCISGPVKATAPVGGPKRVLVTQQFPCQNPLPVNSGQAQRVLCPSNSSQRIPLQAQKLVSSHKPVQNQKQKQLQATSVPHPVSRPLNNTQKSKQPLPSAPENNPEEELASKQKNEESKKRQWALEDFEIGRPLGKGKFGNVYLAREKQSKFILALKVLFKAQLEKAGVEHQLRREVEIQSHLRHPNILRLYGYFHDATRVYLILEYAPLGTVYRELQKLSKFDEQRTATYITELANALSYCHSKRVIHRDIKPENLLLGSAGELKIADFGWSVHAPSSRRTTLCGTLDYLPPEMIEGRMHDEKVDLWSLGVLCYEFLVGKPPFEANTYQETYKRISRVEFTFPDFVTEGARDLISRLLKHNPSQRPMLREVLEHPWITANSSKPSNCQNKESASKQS
Briefly: Counter-screen against Aurora A. Conditions: read-out: AUR-A (IC50). Put shortly: as §1

Turning to `COc1cc2c(cc1Nc1ncc(C(F)(F)F)c(Nc3cccc4c3C(=O)NC4)n1)CCNCC2` [Compound I-44, 7-((2-((8-methoxy-2,3,4,5-tetrahydro-1H-benzo[d]azepin-7-yl)amino)-5-(trifluoromethyl)pyrimidin-4-yl)amino)isoindolin-1-one], the figures for the 50% inhibitory concentration (IC50) in test [1], in test [2] and in test [3] were 0.1 to 10 nM, 101 to 1000 nM and 101 to 1000 nM, respectively.

As for `COc1c(Nc2ncc(C(F)(F)F)c(Nc3cccc4c3C(=O)NC4)n2)ccc(N2CCC(N3CCN(C)CC3)CC2)c1F` [Compound I-45, 7-((2-((3-fluoro-2-methoxy-4-(4-(4-methylpiperazin-1-yl)piperidin-1-yl)phenyl)amino)-5-(trifluoromethyl)pyrimidin-4-yl)amino)isoindolin-1-one], the IC50 in test [1], in test [2] and in test [3] was 11 to 100 nM each time.

As for `COc1cc2c(cc1Nc1ncc(C(F)(F)F)c(Nc3cccc4c3C(=O)NC4)n1)CNCC21CC1` [Compound I-46, 7-((2-((6′-methoxy-2′,3′-dihydro-1′H-spiro[cyclopropane-1,4′-isoquinolin]-7′-yl)amino)-5-(trifluoromethyl)pyrimidin-4-yl)amino)isoindolin-1-one], the IC50 in test [1] was 0.1 to 10 nM; in test [2], 11 to 100 nM; in test [3] it was greater than 1000 nM.

Consider `COc1cc2c(cc1Nc1ncc(OC)c(Nc3cccc4c3C(=O)NC4)n1)CCNC2` [Compound I-47, 7-((5-methoxy-2-((7-methoxy-1,2,3,4-tetrahydroisoquinolin-6-yl)amino)pyrimidin-4-yl)amino)isoindolin-1-one], for which the IC50 in test [1] was 11 to 100 nM; in test [2] it was 101 to 1000 nM; in test [3], greater than 1000 nM.

`C[C@@H]1CN(C2CCN(c3ccc(Nc4ncc(C(F)(F)F)c(Nc5cccc6c5C(=O)NC6)n4)c(OC(F)F)c3)CC2)C[C@H](C)N1C` [Compound I-48, 7-((2-((2-(difluoromethoxy)-4-(4-((3S,5R)-3,4,5-trimethylpiperazin-1-yl)piperidin-1-yl)phenyl)amino)-5-(trifluoromethyl)pyrimidin-4-yl)amino)isoindolin-1-one]: the IC50 in test [1] fell in the range of 0.1 to 10 nM; in test [2], 11 to 100 nM; in test [3], 101 to 1000 nM.

Consider `C[C@@H]1CN(c2ccc(Nc3ncc(C(F)(F)F)c(Nc4cccc5c4C(=O)NC5)n3)c(OC(F)F)c2)C[C@H](C)N1` [Compound I-49, 7-((2-((2-(difluoromethxoy)-4-((3S,5R)-3,5-dimethylpiperazin-1-yl)phenyl)amino)-5-(trifluoromethyl)pyrimidin-4-yl)amino)isoindolin-1-one], for which the IC50 is 0.1 to 10 nM in test [1], 11 to 100 nM in test [2] and greater than 1000 nM in test [3].

For `C[C@H]1CN(c2ccc(Nc3ncc(C(F)(F)F)c(Nc4cccc5c4C(=O)NC5)n3)c(OC(F)F)c2)CCN1` [Compound I-50, (S)-7-((2-((2-(difluoromethoxy)-4-(3-methylpiperazin-1-yl)phenyl)amino)-5-(trifluoromethyl)pyrimidin-4-yl)amino)isoindolin-1-one], the results for the IC50 in test [1], in test [2] and in test [3] were 0.1 to 10 nM, 11 to 100 nM and greater than 1000 nM, respectively.

For `CN1CCN(c2ccc(Nc3ncc(Cl)c(Nc4cccc5c4C(=O)NC5)n3)cc2)CC1` [Compound I-51, 7-((5-chloro-2-((4-(4-methylpiperazin-1-yl)phenyl)amino)pyrimidin-4-yl)amino)isoindolin-1-one], the IC50 in test [1], in test [2] and in test [3] was 0.1 to 10 nM in each case.

Consider `O=C1NCc2cccc(Nc3nc(Nc4cc5c(cc4Cl)CNCC5)ncc3C(F)(F)F)c21` [Compound I-52, 7-((2-((7-chloro-1,2,3,4-tetrahydroisoquinolin-6-yl)amino)-5-(trifluoromethyl)pyrimidin-4-yl)amino)isoindolin-1-one], for which the concentration for half-maximal inhibition (IC50) in test [1], in test [2] and in test [3] was 11 to 100 nM in each case.

For the compound `CN1CCN(c2ccc(Nc3ncc(C(F)(F)F)c(Nc4cccc5c4C(=O)NC5)n3)c(OC(F)(F)F)c2)CC1` [Compound I-53, 7-((2-((4-(4-methylpiperazin-1-yl)-2-(trifluoromethoxy)phenyl)amino)-5-(trifluoromethyl)pyrimidin-4-yl)amino)isoindolin-1-one], the IC50 in test [1] is 11 to 100 nM; in test [2], 101 to 1000 nM; in test [3], greater than 1000 nM.

For the compound `O=C1NCc2cccc(Nc3nc(Nc4ccc(N5CCCNCC5)cc4OC(F)F)ncc3C(F)(F)F)c21` [Compound I-55, 7-((2-((4-(1,4-diazepan-1-yl)-2-(difluoromethoxy)phenyl)amino)-5-(trifluoromethyl)pyrimidin-4-yl)amino)isoindolin-1-one], the IC50 is 0.1 to 10 nM in test [1], 11 to 100 nM in test [2] and greater than 1000 nM in test [3].

Turning to `C[C@@H]1CN(c2ccc(Nc3ncc(C(F)(F)F)c(Nc4cccc5c4C(=O)NC5)n3)c(OC(F)F)c2)CCN1` [Compound I-57, (R)-7-((2-((2-(difluoromethoxy)-4-(3-methylpiperazin-1-yl)phenyl)amino)-5-(trifluoromethyl)pyrimidin-4-yl)amino)isoindolin-1-one], the half-maximal inhibitory concentration (IC50) was 0.1 to 10 nM in test [1], 11 to 100 nM in test [2] and greater than 1000 nM in test [3].

As for `O=C1NCc2cccc(Nc3nc(Nc4ccc(N5CCC6(CCNCC6)CC5)cc4OC(F)F)ncc3C(F)(F)F)c21` [Compound I-58, 7-((2-((2-(difluoromethoxy)-4-(3,9-diazaspiro[5.5]undecan-3-yl)phenyl)amino)-5-(trifluoromethyl)pyrimidin-4-yl)amino)isoindolin-1-one], the IC50 fell in the range of 11 to 100 nM in test [1], 11 to 100 nM in test [2] and 101 to 1000 nM in test [3].

Turning to `O=C1NCc2cccc(Nc3nc(Nc4ccc(N5CCOCC5)cc4OC(F)F)ncc3C(F)(F)F)c21` [Compound I-60, 7-((2-((2-(difluoromethoxy)-4-morpholinophenyl)amino)-5-(trifluoromethyl)pyrimidin-4-yl)amino)isoindolin-1-one], the IC50 in test [1] is 11 to 100 nM; in test [2], 11 to 100 nM; in test [3] it was 101 to 1000 nM.

For `CCN(CC)CCOc1ccc(Nc2ncc(C(F)(F)F)c(Nc3cccc4c3C(=O)NC4)n2)cc1` [Compound I-61, 7-((2-((4-(2-(diethylamino)ethoxy)phenyl)amino)-5-(trifluoromethyl)pyrimidin-4-yl)amino)isoindolin-1-one], the IC50 in test [1] is 11 to 100 nM; in test [2] it was 11 to 100 nM; in test [3], 101 to 1000 nM.

With `CCN(CC)CCOc1ccc(Nc2ncc(Cl)c(Nc3cccc4c3C(=O)NC4)n2)cc1` [Compound I-62, 7-((5-chloro-2-((4-(2-(diethylamino)ethoxy)phenyl)amino)pyrimidin-4-yl)amino)isoindolin-1-one], the IC50 in test [1] is 0.1 to 10 nM; in test [2], 0.1 to 10 nM; in test [3], 11 to 100 nM.

Consider `O=C1NCc2cccc(Nc3nc(Nc4ccc(N5C[C@H]6CC[C@@H](C5)N6)cc4OC(F)F)ncc3Cl)c21` [Compound I-64, 7-((2-((4-((1R,5S)-3,8-diazabicyclo[3.2.1]octan-3-yl)-2-(difluoromethoxy)phenyl)amino)-5-chloropyrimidin-4-yl)amino)isoindolin-1-one], for which the figures for the IC50 in test [1], in test [2] and in test [3] were 0.1 to 10 nM, 11 to 100 nM and greater than 1000 nM, respectively.
